Results from patent US9771352B2, “Hydroxyalkyl-substituted phenyltriazole derivatives and uses thereof” (BAYER PHARMA AKTIENGESELLSCHAFT, priority 2014, dated 2017).

Tests used:
[1] = biological target: T1, human V1a receptor (Homo sapiens, UniProt P37288); test: Cellular in vitro assay for determining vasopressin receptor activity, V1a receptor cell line (photoprotein luminescence); format: cell-based; settings: CHO cell line transfected with human V1a receptor; [Arg8]-vasopressin at EC50; compounds of the invention (Table 1A); read-out: IC50 hV1a
T1 construct: expressed in transfected cells; host or cells: CHO K1 (ATCC), also stably transfected with modified aequorin
T1 sequence (P37288 whole entry): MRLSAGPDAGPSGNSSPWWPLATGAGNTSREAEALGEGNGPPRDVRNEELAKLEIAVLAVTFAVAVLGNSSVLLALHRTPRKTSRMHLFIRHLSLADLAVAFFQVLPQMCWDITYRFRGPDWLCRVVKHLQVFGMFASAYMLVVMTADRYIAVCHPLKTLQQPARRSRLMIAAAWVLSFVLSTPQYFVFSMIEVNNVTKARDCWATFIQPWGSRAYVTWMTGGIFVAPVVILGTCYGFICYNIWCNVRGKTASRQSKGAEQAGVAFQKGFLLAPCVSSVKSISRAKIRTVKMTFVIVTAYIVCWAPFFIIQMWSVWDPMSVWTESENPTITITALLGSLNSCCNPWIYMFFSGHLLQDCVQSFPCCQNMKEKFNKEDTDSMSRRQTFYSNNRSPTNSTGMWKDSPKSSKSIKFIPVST
Procedure: (§1) The identification of agonists and antagonists of the V1a and V2 vasopressin receptors from humans, rats and dogs as well as the quantification of the activity of the compounds of the invention is carried out using recombinant cell lines. These cell lines originally derive from a hamster's ovary epithelial cell (Chinese Hamster Ovary, CHO K1, ATCC: American Type Culture Collection, Manassas, Va. 20108, USA). The test cell lines constitutively express the human, rat or dog V1a or V2 receptors. In case of the […] V1a receptors, cells are also stably transfected with a modified form of the calcium-sensitive photoproteins aequorin (human and rat V1a) or obelin (dog V1a), which, after reconstitution with the cofactor coelenterazine, emit light when there are increases in free calcium concentrations [Rizzuto R, Simpson A W, Brini M, Pozzan T, Nature 358, 325-327 (1992); Illarionov B A, Bondar V S, Illarionova V A, Vysotski E S, Gene 153 (2), 273-274 (1995)]. The resulting vasopressin receptor cells react to stimulation of the recombinantly expressed V1a receptors by intracellular release of calcium ions, which can be quantified by the resulting photoprotein luminescence. The Gs-coupled V2 receptors are stably transfected into cell lines expressing the gene for firefly luciferase under control of a CRE-responsible promoter. Activation of V2 receptors induces the activation of the CRE-responsive promoter via cAMP increase, thereby inducing the expression of firefly luciferase. The light emitted by photoproteins of V1a cell lines as well as the light emitted by firefly luciferase of V2 cell lines corresponds to the activation or inhibition of the respective vasopressin receptor. The bioluminescence of the cell lines is detected using a suitable luminometer [Milligan G, Marshall F, Rees S, Trends in Pharmacological Sciences 17, 235-237 (1996)].
On the day before the assay, the cells are plated out in culture medium (DMEM/F12, 2% FCS, 2 mM glutamine, 10 mM HEPES, 5 μg/ml coelenterazine) in 384-well microtiter plates and kept in a cell incubator (96% humidity, 5% v/v CO2, 37° C.). On the day of the assay, test compounds in various concentrations are placed for 10 minutes in the wells of the microtiter plate before the agonist [Arg^8]-vasopressin at EC50 concentration is added. The resulting light signal is measured immediately in the luminometer.
(§2) Table 1A below lists individual IC50 values for the compounds of the invention (including diastereomeric mixtures as well as separated, enantiopure diastereomers) that were obtained from cell lines transfected with the human V1a or V2 receptor: […]

[2] = test system: conscious rats; test: Diuresis investigations in conscious rats kept in metabolism cages; format: in vivo, Wistar rats; settings: Rattus norvegicus, po, read-out: Urinary volume; for response vs control in vivo at 1 mg/kg: dosage p.o. 1.0 mg/kg (Table 2A); for response vs control in vivo at 0.3 mg/kg: dosage p.o. 0.3 mg/kg (Table 2A)
Procedure: Wistar rats (220-450 g body weight) are kept with free access to feed (Altromin) and drinking water. During the experiment, the animals are kept with free access to drinking water for 4 to 8 or up to 24 hours individually in metabolism cages suitable for rats of this weight class (Tecniplast Deutschland GmbH, D-82383 HohenpeiBenberg). At the beginning of the experiment, the animals are administered the test substance in a volume of 1 to 3 ml/kg body weight of a suitable solvent by means of gavage into the stomach. Control animals only receive solvent. Controls and substance tests are carried out in parallel on the same day. Control groups and substance-dose groups each consist of 4 to 8 animals. During the experiment, the urine excreted by the animals is collected continuously in a receiver at the base of the cage. The volume of urine per time unit is determined separately for each animal, and the concentration of urinary electrolytes is measured by standard methods of flame photometry. Before the beginning of the experiment, the body weight of the individual animals is determined.

[3] = biological target: T2, human V2 receptor (Homo sapiens, UniProt P30518); test: Cellular in vitro assay for determining vasopressin receptor activity, V2 receptor cell line (CRE-luciferase); format: cell-based; settings: CHO cell line transfected with human V2 receptor; [Arg8]-vasopressin at EC50; compounds of the invention (Table 1A); read-out: IC50 hV2
T2 construct: expressed in transfected cells; host or cells: CHO K1 (ATCC) expressing firefly luciferase under a CRE-responsive promoter
T2 sequence (P30518 whole entry): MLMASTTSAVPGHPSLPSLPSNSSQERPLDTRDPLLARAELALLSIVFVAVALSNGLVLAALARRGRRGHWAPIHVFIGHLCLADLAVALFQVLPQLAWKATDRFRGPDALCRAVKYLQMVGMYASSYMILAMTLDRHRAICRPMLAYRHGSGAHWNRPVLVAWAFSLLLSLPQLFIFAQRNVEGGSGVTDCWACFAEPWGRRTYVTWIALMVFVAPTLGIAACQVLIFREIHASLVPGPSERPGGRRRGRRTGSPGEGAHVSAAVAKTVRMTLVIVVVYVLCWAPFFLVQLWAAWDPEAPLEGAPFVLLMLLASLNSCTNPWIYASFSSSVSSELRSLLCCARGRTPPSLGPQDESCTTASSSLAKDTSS
Procedure: as §1
On the day before the assay, the cells are plated out in culture medium (DMEM/F12, 2% FCS, 2 mM glutamine, 10 mM HEPES) in 384-well microtiter plates and kept in a cell incubator (96% humidity, 5% v/v CO2, 37° C.). […] Upon addition of the cell lysis reagent Triton and the substrate luciferin, luminescence of firefly luciferase is measured in a luminometer.
as §2

SMILES	IC50 [1]	response vs control in vivo at 1 mg/kg [2]	IC50 [3]	response vs control in vivo at 0.3 mg/kg [2]	response vs control in vivo at 3 mg/kg ([2]; dosage p.o. 3.0 mg/kg (Table 2A))
CC(O)c1nc(Cn2nc(-c3ccc(Cl)cc3)n(C[C@H](O)C(F)(F)F)c2=O)nn1-c1cc(F)cc(Cl)c1 (single isomer, unassigned) [Example 14]	1.3 nM	753%	0.4 nM	–	–
CC(O)c1nc(Cn2nc(-c3ccc(Cl)cc3)n(C[C@H](O)C(F)(F)F)c2=O)nn1-c1cc(F)cc(Cl)c1 (single isomer, unassigned) [Example 15]	38.4 nM	–	4.1 nM	412%	–
CC(O)c1nc(Cn2nc(-c3ccc(Cl)cc3)n(C[C@H](O)C(F)(F)F)c2=O)nn1-c1ccccc1 (single isomer, unassigned) [Example 17]	2.7 nM	819%	3.4 nM	404%	–
Cc1cccc(-n2nc(Cn3nc(-c4ccc(Cl)cc4)n(C[C@H](O)C(F)(F)F)c3=O)nc2C(C)O)c1 (single isomer, unassigned) [Example 29]	2.9 nM	983%	0.2 nM	404%	–
CC(O)c1nc(Cn2nc(-c3ccc(Cl)cc3)n(C[C@H](O)C(F)(F)F)c2=O)nn1-c1cc(Cl)ccc1Cl (single isomer, unassigned) [Example 51]	3 nM	–	22.3 nM	–	–
CC(O)c1nc(Cn2nc(-c3ccc(Cl)cc3)n(C[C@H](O)C(F)(F)F)c2=O)nn1-c1cccc(Cl)c1F (single isomer, unassigned) [Example 53]	7.9 nM	–	1.8 nM	–	–
CC(O)c1nc(Cn2nc(-c3ccc(Cl)cc3)n(C[C@H](O)C(F)(F)F)c2=O)nn1-c1cccc(Cl)c1F (single isomer, unassigned) [Example 54]	39.7 nM	–	1.6 nM	–	–
CC(O)c1nc(Cn2nc(-c3ccc(Cl)cc3)n(C[C@H](O)C(F)(F)F)c2=O)nn1-c1cccc(OC(F)F)c1 (single isomer, unassigned) [Example 56]	2.4 nM	–	1.4 nM	–	–
CC(O)c1nc(Cn2nc(-c3ccc(Cl)cc3)n(C[C@H](O)C(F)(F)F)c2=O)nn1-c1cccc(OC(F)F)c1 (single isomer, unassigned) [Example 57]	38.2 nM	–	8.2 nM	–	–
CC(O)c1nc(Cn2nc(-c3ccc(Cl)cc3)n(C[C@H](O)C(F)(F)F)c2=O)nn1-c1cccc(Cl)c1Cl (single isomer, unassigned) [Example 62]	7.8 nM	–	0.9 nM	–	–
CC(O)c1nc(Cn2nc(-c3ccc(Cl)cc3)n(C[C@H](O)C(F)(F)F)c2=O)nn1-c1cccc(Cl)c1Cl (single isomer, unassigned) [Example 63]	51.6 nM	–	1.9 nM	–	–
CC(O)c1nc(Cn2nc(-c3ccc(Cl)cc3)n(C[C@H](O)C(F)(F)F)c2=O)nn1-c1cccc(F)c1F (single isomer, unassigned) [Example 65]	2.5 nM	–	3.3 nM	–	–
CC(O)c1nc(Cn2nc(-c3ccc(Cl)cc3)n(C[C@H](O)C(F)(F)F)c2=O)nn1-c1cccc(F)c1F (single isomer, unassigned) [Example 66]	4 nM	–	1.9 nM	–	–
CC(O)c1nc(Cn2nc(-c3ccc(Cl)cc3)n(C[C@H](O)C(F)(F)F)c2=O)nn1-c1cccc(F)c1Cl (single isomer, unassigned) [Example 67]	2.1 nM	–	2.7 nM	–	–
CC(O)c1nc(Cn2nc(-c3ccc(Cl)cc3)n(C[C@H](O)C(F)(F)F)c2=O)nn1-c1cccc(F)c1Cl (single isomer, unassigned) [Example 68]	3.3 nM	–	1.3 nM	–	–
Cc1ccccc1-n1nc(Cn2nc(-c3ccc(Cl)cc3)n(C[C@H](O)C(F)(F)F)c2=O)nc1C(C)O (single isomer, unassigned) [Example 70]	0.5 nM	–	1.1 nM	139%	595%
Cc1ccccc1-n1nc(Cn2nc(-c3ccc(Cl)cc3)n(C[C@H](O)C(F)(F)F)c2=O)nc1C(C)O (single isomer, unassigned) [Example 71]	0.6 nM	–	2.1 nM	–	–
CC(O)c1nc(Cn2nc(-c3ccc(Cl)cc3)n(C[C@H](O)C(F)(F)F)c2=O)nn1-c1ccccc1C(F)(F)F (single isomer, unassigned) [Example 73]	1.1 nM	–	7 nM	–	–
CC(O)c1nc(Cn2nc(-c3ccc(Cl)cc3)n(C[C@H](O)C(F)(F)F)c2=O)nn1-c1ccccc1C(F)(F)F (single isomer, unassigned) [Example 74]	2.2 nM	–	24.7 nM	–	–
O=c1n(Cc2nc(CO)n(-c3cc(F)cc(F)c3)n2)nc(-c2ccc(Cl)cc2)n1C[C@H](O)C(F)(F)F [Example 7, 5-(4-Chlorophenyl)-2-{[1-(3,5-difluorophenyl)-5-(hydroxymethyl)-1H-1,2,4-triazol-3-yl]methyl}-4-[(2S)-3,3,3-trifluoro-2-hydroxypropyl]-2,4-dihydro-3H-1,2,4-triazol-3-one]	7.6 nM	–	2.6 nM	–	–
O=c1n(Cc2nc(CO)n(-c3ccccc3C(F)(F)F)n2)nc(-c2ccc(Cl)cc2)n1C[C@H](O)C(F)(F)F [Example 8, 5-(4-Chlorophenyl)-2-({5-(hydroxymethyl)-1-[2-(trifluoromethyl)phenyl]-1H-1,2,4-triazol-3-yl}-methyl)-4-[(2S)-3,3,3-trifluoro-2-hydroxypropyl]-2,4-dihydro-3H-1,2,4-triazol-3-one]	1.2 nM	–	10.7 nM	–	–
O=c1n(Cc2nc(CO)n(-c3cc(F)ccc3Cl)n2)nc(-c2ccc(Cl)cc2)n1C[C@H](O)C(F)(F)F [Example 9, 2-{[1-(2-Chloro-5-fluorophenyl)-5-(hydroxymethyl)-1H-1,2,4-triazol-3-yl]methyl}-5-(4-chlorophenyl)-4-[(2S)-3,3,3-trifluoro-2-hydroxypropyl]-2,4-dihydro-3H-1,2,4-triazol-3-one]	0.4 nM	–	2.3 nM	–	–
C[C@@H](O)c1nc(Cn2nc(-c3ccc(Cl)cc3)n(C[C@H](O)C(F)(F)F)c2=O)nn1-c1cccc(F)c1 [Example 77, 5-(4-Chlorophenyl)-2-({1-(3-fluorophenyl)-5-[(1R)-1-hydroxyethyl]-1H-1,2,4-triazol-3-yl}-methyl)-4-[(2S)-3,3,3-trifluoro-2-hydroxypropyl]-2,4-dihydro-3H-1,2,4-triazol-3-one]	12.5 nM	–	13.5 nM	–	–
C[C@@H](O)c1nc(Cn2nc(-c3ccc(Cl)cc3)n(C[C@H](O)C(F)(F)F)c2=O)nn1-c1cccc(Cl)c1 [Example 80, 5-(4-Chlorophenyl)-2-({1-(3-chlorophenyl)-5-[(1R)-1-hydroxyethyl]-1H-1,2,4-triazol-3-yl}-methyl)-4-[(2S)-3,3,3-trifluoro-2-hydroxypropyl]-2,4-dihydro-3H-1,2,4-triazol-3-one]	46.3 nM	–	5.1 nM	–	–
